According to patent US11744273B2, “Sweetness enhancing volatile compositions and methods of increasing perceived sweetness of a comestible” (University of Florida Research Foundation, Inc., priority 2016, dated 2023):

Legend:
Format in all cases: in vivo, human
sweetness = test: Orange juice; partial least squares regression of volatiles against sweetness independent of total sugar (Table 9)
Protocol: Volatile content of orange juice was assessed and analyzed similar to as described above for tomato, strawberry, and blueberry, described above. The process for obtaining volatile samples from orange juice was slightly different than for tomatoes, strawberries and blueberries. […] Briefly, instead of collecting volatiles at room temperature from a fruit mash in headspace of a closed area, the volatiles were elicited by heating the juice to collect volatiles.

flavor intensity = test: Tomato taste panel; association of compounds with tomato flavor intensity; details: for association with flavor intensity: univariate models
Protocol: (§1) Fully ripe fruit were harvested, and used for taste panels. A random subset of fruit was used for biochemical analysis. Three biological replicates, each consisting of 2-20 fruit (depending on fruit size), were assayed for each variety. […] Panelists were between the ages of 18 and 78 with a median age of 22. […] An average of 85 (range of 66-95) of these panelists evaluated between 4-6 varieties in a session. All panelists went through a training session to familiarize them with the scaling and procedures. Tomatoes were sliced into wedges (or in halves for grape/cherry types) and each panelist was given two pieces for evaluation. Panelists took a bite of each sample, chewed and swallowed it, and rated overall liking and liking for texture. They then rated the perceived intensities of sweetness, sourness, saltiness, umami sensation, bitterness and overall tomato flavor. They were free to take as many bites as necessary to complete the assessments. They were instructed to take a bite of an unsalted cracker and a sip of water between samples. Samples were presented to the panelists in a randomized order. Hedonic ratings used the hedonic gLMS. This scale assesses the liking for tomatoes in the context of all pleasure/displeasure experiences: 0=neutral, −100=strongest disliking of any kind experienced, and +100=strongest liking of any kind experienced. Sensory intensity ratings used the gLMS (7,8,19). This scale assesses taste and flavor sensations in the context of all sensory experience (7): 0=no sensation, 100=strongest sensation of any kind experienced. Both scales were devised to provide valid comparisons across subjects.
(§2) The 68 chemical compounds measured in this experiment were initially divided into six groups based upon biochemical properties: sugars, branched chain amino acids, lipids, carotenoids, phenolics, and acids. A small number of compounds for which biosynthetic pathways are not established were assigned to one of the six classes based upon their correlations with other classified compounds. All pairwise correlations among the set of 68 compounds were calculated. Correlation coefficients were sorted using Modulated Modularity Clustering (MMC) (9) as a visual aid for identifying compounds that are closely related in this sample. Biochemical groups were examined for compounds within the group that were highly correlated and compounds that were upstream in the relevant metabolic pathways were preferentially selected.
(§3) All analyses were performed in SAS v 9.2.
Due to the large number of chemicals potentially influencing liking, a multivariate analysis of the data was performed. The attributes were initially partitioned into six groups based upon chemical properties and biosynthetic pathways: sugars, branched chain amino acids, fatty acids, carotenoids, phenolics, and acids. […] Groups of structurally related chemicals with known metabolic links were examined for compounds within each module that were highly colinear and compounds that were upstream in relevant metabolic pathways were preferentially selected.

[1] = test system: perceived sweetness intensity; test: Strawberry consumer panel; revised partial least squares regression against sweetness intensity (Table 6)
Protocol: (§4) All consumer panels were approved by the University of Florida Institutional Review Board. […] Ages of panelist ranged from 18 to 71, with a median age of 24. Panelists self-classified themselves as 98 White or Caucasian, 11 Black or African-American, 1 Native American, Alaska Native or Aleutian, 41 Asian/Pacific Islander, and 15 Other. […] Fresh, fully-ripe strawberry fruit was removed from overnight 4° C. dark storage and allowed to warm to room temperature prior to sensory analysis. Each panelist was given one to two whole strawberries for evaluation, depending on cultivar availability. Panelist took a bite of each sample, chewed, and swallowed it. Ratings for overall liking and liking for texture were scaled on hedonic general labeled magnitude scale (gLMS) in the context of all pleasure/displeasure experiences. […] Scales were employed to mediate valid comparisons across subjects and sessions.
For the second analysis, partial least squares regression analysis was used to identify more correlations to sweetness independent of sugars.

perceived sweetness = test: Tomato taste panel; initial multiple regression of volatiles against perceived sweetness (Table 3); details: for association with sweetness after accounting for fructose / association with sweetness: tomato; for association with sweetness: univariate models
Protocol: as §1, §2, §3
In conducting the multiple regression analysis on the tomato data set, the independent variables were the sugar content (glucose+fructose), and the flavor (indicated by the retronasal perception of volatiles), while the dependent variable was the perceived sweetness.

[2] = test system: perceived sweetness intensity; test: Strawberry consumer panel; initial multiple regression of volatiles against perceived sweetness intensity independent of glucose, fructose or sucrose (Table 5); details: for FRUCTOSE t RATIO / GLUCOSE t RATIO / SUCROSE t RATIO: standard least squares; for FRUCTOSE t RATIO: sweetness intensity independent of fructose; for GLUCOSE t RATIO: sweetness intensity independent of glucose; for SUCROSE t RATIO: sweetness intensity independent of sucrose; for relation to sweetness intensity independent of sugars: initial step-wise multiple regression
Protocol: Step-wise multiple regressions of all volatile compounds against perceived intensity of sweetness is performed independent of either glucose, fructose, or sucrose concentration, separately (Table 5).
At least 100 grams or seven berries of each sample were removed from 4° C. dark overnight storage prior to volatile collection. Samples were homogenized in a blender prior to splitting into three 15 gram replicates for immediate capturing of volatile emission and remainder of sample frozen in N2 (I) and stored at −80° C. for later sugar and acid quantification.
Oven temperatures programmed from 40° C. (0.5 min hold) at 5° C. min^−1 to 250° C. (4 min hold). Signals captured with a flame ionization detector (FID) at 280° C. Peaks from FID signal were integrated manually with Chemstation B.04.01 software (Agilent Technologies, Santa Clara, Calif.). Volatile emission (ng gFW^−1 h^−1) calculated based on individual peak area relative to sample elution standard peak area.
as §4
For the first analysis, individual volatile compound concentrations were regressed using the “enter” method in SPSS Statistics (IBM Corp, Armonk, N.Y., USA).

[3] = strawberry volatile concentration regressed against perceived sweetness intensity independent of fructose, partial least squares regression
[4] = strawberry volatile concentration regressed against perceived sweetness intensity independent of glucose, partial least squares regression
[5] = strawberry volatile concentration regressed against perceived sweetness intensity independent of sucrose, partial least squares regression

Compound: C=C(C)[C@@H]1CC=C(C)[C@@H](O)C1 (relative stereo) [carveol, trans]
- Total Sugar t Ratio (sweetness): 2.542

Compound: C=CC(=O)CCCCC [1-octen-3-one]
- association with flavor intensity after accounting for fructose (flavor intensity): significant after accounting for fructose
- association with flavor intensity (flavor intensity): associated with flavor intensity

Compound: CCCCCC=CC=O [2-Octenal]
- t Ratio (Fructose) [1, 3]: −0.171
- t Ratio (Glucose) [1, 4]: 0.292
- t Ratio (Sucrose) [1, 5]: 2.052

Compound: CCC(C)C=O (centres unmarked) [2-methylbuteraldehyde, 2-methylbutanal]
- association with flavor intensity after accounting for fructose (flavor intensity): significant after accounting for fructose
- association with flavor intensity (flavor intensity): associated with flavor intensity
- association with sweetness after accounting for fructose (perceived sweetness): significant after accounting for fructose
- association with sweetness (perceived sweetness): showed evidence for association with sweetness

Compound: CC(C)CCO [3-methyl-1-butanol]
- association with flavor intensity after accounting for fructose (flavor intensity): significant after accounting for fructose
- association with flavor intensity (flavor intensity): associated with flavor intensity
- association with sweetness after accounting for fructose (perceived sweetness): significant after accounting for fructose
- association with sweetness (perceived sweetness): showed evidence for association with sweetness

Compound: CC1C=CC2C(C1)C2(C)C (centres unmarked) [4-carene]
- association with sweetness (perceived sweetness): showed evidence for association with sweetness

Compound: CCCCCCCCOC(=O)CC(C)C [7786-58-5]
- FRUCTOSE t RATIO [2]: 0.362
- GLUCOSE t RATIO [2]: 0.227
- SUCROSE t RATIO [2]: 2.027

Compound: CCCCCCCCCOC(=O)C(C)C [10522-34-6]
- FRUCTOSE t RATIO [2]: 0.536
- GLUCOSE t RATIO [2]: 0.288
- SUCROSE t RATIO [2]: 2.049

Compound: C=C(C)C1CC=C(COC(C)=O)CC1 (centres unmarked) [15111-96-3]
- FRUCTOSE t RATIO [2]: 0.23
- GLUCOSE t RATIO [2]: 0.192
- SUCROSE t RATIO [2]: 0.927

Compound: CCCCC/C=C\C=O [20664-46-4]
- FRUCTOSE t RATIO [2]: −0.17
- GLUCOSE t RATIO [2]: −0.395
- SUCROSE t RATIO [2]: 1.383

Compound: CCC(O)C(=O)OC (centres unmarked) [29674-47-3]
- FRUCTOSE t RATIO [2]: 1.339
- GLUCOSE t RATIO [2]: 1.362
- SUCROSE t RATIO [2]: 0.035

Compound: CCCCCCCCOC(=O)C(C)CC (centres unmarked) [29811-50-5]
- FRUCTOSE t RATIO [2]: 0.016
- GLUCOSE t RATIO [2]: −0.098
- SUCROSE t RATIO [2]: 0.358

Compound: C=CC(C)(O)CC/C=C(\C)CCC=C(C)C (centres unmarked) [40716-66-3]
- FRUCTOSE t RATIO [2]: 1.521
- GLUCOSE t RATIO [2]: 1.202
- SUCROSE t RATIO [2]: 1

Compound: CC=C(C)C(=O)OCC [55514-48-2]
- FRUCTOSE t RATIO [2]: −0.644
- GLUCOSE t RATIO [2]: −0.675
- SUCROSE t RATIO [2]: −0.889

Compound: CCCC(=O)OC(C)CCC (centres unmarked) [60415-61-4, 2-pentanyl butyrate]
- relation to sweetness intensity independent of sugars [2]: enhance sweetness intensity

Compound: C=C[C@]1(C)CC[C@H](C(C)(C)O)O1 [(Z)-Linalool oxide]
- t Ratio (Fructose) [1, 3]: 1.868
- t Ratio (Glucose) [1, 4]: 1.561
- t Ratio (Sucrose) [1, 5]: 1.954

Compound: C/C=C(C)/C=C/C=C(C)C [E,E-alloocimene]
- Total Sugar t Ratio (sweetness): 3.337

Compound: C=C(C)[C@H]1C=C[C@](C)(O)CC1 [E-p-mentha-2,8-dien-1-ol]
- Total Sugar t Ratio (sweetness): 1.258

Compound: C=C(C)[C@@H]1CCC2=CCC[C@H](C)[C@@]2(C)C1 [Eremophilene]
- Total Sugar t Ratio (sweetness): 1.738

Compound: CC1(C)[C@H]2CC=C(C=O)[C@@H]1C2 [Myrtenal]
- t Ratio (Fructose) [1, 3]: 2.588
- t Ratio (Glucose) [1, 4]: 2.455
- t Ratio (Sucrose) [1, 5]: −1.323

Compound: CCCCCCCCOC(=O)C(C)CC (centres unmarked) [Octyl 2-methyl butyrate]
- t Ratio (Fructose) ([1]; in vivo): 0.015
- t Ratio (Glucose) ([1]; in vivo): −0.099
- t Ratio (Sucrose) ([1]; in vivo): 0.357

Compound: C=C(C)C1CC=C(COC(C)=O)CC1 (centres unmarked) [Perillyl acetate]
- t Ratio (Fructose) [1, 3]: 0.231
- t Ratio (Glucose) [1, 4]: 0.193
- t Ratio (Sucrose) [1, 5]: 0.927

Compound: c1ccc2scnc2c1 [benzothiazole]
- association with flavor intensity (flavor intensity): associated with flavor intensity

Compound: CCCCOC(C)=O [butyl acetate]
- association with flavor intensity (flavor intensity): associated with flavor intensity
- association with sweetness (perceived sweetness): showed evidence for association with sweetness

Compound: CC/C=C\CCO [cis-3-hexen-1-ol]
- association with flavor intensity after accounting for fructose (flavor intensity): significant after accounting for fructose
- association with flavor intensity (flavor intensity): associated with flavor intensity
- association with sweetness (perceived sweetness): showed evidence for association with sweetness

Compound: CCCCC/C=C\CCC=O [cis-4-decenal]
- t (perceived sweetness; tomato volatiles, multiple regression, contribution to sweetness independent of the measures of sugar): 0.582

Compound: O=C(O)CC(O)(CC(=O)O)C(=O)O [citric acid]
- association with flavor intensity after accounting for fructose (flavor intensity): significant after accounting for fructose
- association with flavor intensity (flavor intensity): associated with flavor intensity

Compound: C=CCc1ccc(O)c(OC)c1 [eugenol]
- association with sweetness (perceived sweetness): showed evidence for association with sweetness

Compound: O=C(CO)[C@@H](O)[C@H](O)[C@H](O)CO [fructose]
- association with flavor intensity (flavor intensity): associated with flavor intensity
- association with sweetness (perceived sweetness): showed evidence for association with sweetness

Compound: CC(C)=CCC/C(C)=C/C=O [geranial]
- association with flavor intensity (flavor intensity): associated with flavor intensity
- association with sweetness after accounting for fructose (perceived sweetness): significant after accounting for fructose
- association with sweetness (perceived sweetness): showed evidence for association with sweetness

Compound: COc1ccccc1O [guaiacol]
- association with sweetness (perceived sweetness): showed evidence for association with sweetness

Compound: CCCCCCC=O [heptaldehyde]
- association with sweetness (perceived sweetness): showed evidence for association with sweetness

Compound: CCCCCCOC(C)=O [hexyl acetate]
- relation to sweetness intensity independent of sugars [2]: enhance sweetness intensity

Compound: CSCCC=O [methional]
- association with flavor intensity (flavor intensity): associated with flavor intensity
- association with sweetness (perceived sweetness): showed evidence for association with sweetness

Compound: O=CCc1ccccc1 [phenylacetaldehyde]
- association with sweetness (perceived sweetness): showed evidence for association with sweetness

Compound: CC(=O)OCC=C(C)C [prenyl acetate, 3-methyl-2-buten-1-yl acetate]
- relation to sweetness intensity independent of sugars [2]: negatively related to sweetness

Compound: CCC(C)OC(C)=O (centres unmarked) [sec-butyl acetate]
- association with flavor intensity after accounting for fructose (flavor intensity): significant after accounting for fructose

Compound: CCCCC/C=C/C=C/C=O [trans,trans-2,4-decadienal]
- association with flavor intensity after accounting for fructose (flavor intensity): significant after accounting for fructose
- association with flavor intensity (flavor intensity): associated with flavor intensity

Compound: CCCCCCC1CCC(=O)O1 (centres unmarked) [γ-Decalactone]
- t Ratio (Fructose) [1, 3]: 1.246
- t Ratio (Glucose) [1, 4]: 0.88
- t Ratio (Sucrose) [1, 5]: 1.650

Compound: Methyl thiolacetate
- t Ratio (Fructose) [1, 3]: 0.476
- t Ratio (Glucose) [1, 4]: 0.416
- t Ratio (Sucrose) [1, 5]: 1.037
